In PubChem BioAssay AID248 (DTP/NCI, 2004):
“And” between values parts separate entries of the source, which are not always exact repeats. Identical values can stand only once. Inconclusive results and toxic doses are left out. Rule as the data show it: active = T/C of 150% or more; inactive = T/C below 125%.

System: L1210 leukemia ip in BDF1 mice, survival T/C
Experiment: NCI In Vivo Anticancer Drug Screen. Data for tumor model L1210 Leukemia (intraperitoneal) in B6D2F1 (BDF1) mice
Conditions: endpoint: mean survival time, higher = longer survival
Method in brief: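 Tumor was transplanted into mice, which were then dosed with test compound or vehicle alone. Survival was recorded for each group, and the treated figure was expressed relative to the control figure.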

[1] = dose: 75.0 mg/kg/injection, schedule: Q01DX001 (ip), vehicle: saline
[2] = dose: 150.0 mg/kg/injection, schedule: Q01DX001 (ip), vehicle: saline
[3] = dose: 100.0 mg/kg/injection, schedule: Q01DX001 (ip), vehicle: saline
[4] = dose: 200.0 mg/kg/injection, schedule: Q01DX001 (ip), vehicle: saline
[5] = dose: 400.0 mg/kg/injection, schedule: Q01DX001 (ip), vehicle: saline
[6] = dose: 50.0 mg/kg/injection, schedule: Q04DX003 (ip), vehicle: Klucel (hydroxypropylcellulose) (HPC)
[7] = dose: 100.0 mg/kg/injection, schedule: Q04DX003 (ip), vehicle: Klucel (hydroxypropylcellulose) (HPC)
[8] = dose: 25.0 mg/kg/injection, schedule: Q01DX001 (ip), vehicle: saline
[9] = dose: 50.0 mg/kg/injection, schedule: Q01DX001 (ip), vehicle: saline

Measured: T/C

O=S(=O)(OCCNc1ccccc1)c1ccccc1
inactive: [1] 101 % of control | [2] 98 % of control | dose: 300.0 mg/kg/injection, schedule: Q01DX001 (ip), vehicle: saline 98 % of control

CCOC(=N)CCNS(=O)(=O)c1ccc(C)cc1
inactive: [3] 104 % of control | [4] 98 % of control | [5] 115 % of control

CC(=O)Nc1ccc2c(c1)Cc1cc(N=Cc3ccccn3)ccc1-2
inactive: [6] 87 % of control | [7] 90 % of control

CCCCOC(c1ccc2c(c1)OCO2)C(C)Br (configuration not stated)
inactive: dose: 100.0 mg/kg/injection, schedule: Q04DX003 (ip), vehicle: saline with Tween-80 94 % of control | dose: 200.0 mg/kg/injection, schedule: Q04DX003 (ip), vehicle: saline with Tween-80 94 % of control | dose: 400.0 mg/kg/injection, schedule: Q04DX003 (ip), vehicle: saline with Tween-80 97 % of control

Cc1ccc(NC2=CCC(=O)OC2=O)cc1
inactive: dose: 25.0 mg/kg/injection, schedule: Q01DX009 (ip), vehicle: Klucel (hydroxypropylcellulose) (HPC) 93 % of control | dose: 25.0 mg/kg/injection, schedule: Q04DX003 (ip), vehicle: Klucel (hydroxypropylcellulose) (HPC) 100 % of control | dose: 50.0 mg/kg/injection, schedule: Q01DX009 (ip), vehicle: Klucel (hydroxypropylcellulose) (HPC) 88 % of control | [6] 105 % of control | dose: 100.0 mg/kg/injection, schedule: Q01DX009 (ip), vehicle: Klucel (hydroxypropylcellulose) (HPC) 90 % of control | [7] 97 % of control | dose: 200.0 mg/kg/injection, schedule: Q01DX009 (ip), vehicle: Klucel (hydroxypropylcellulose) (HPC) 97 % of control | dose: 200.0 mg/kg/injection, schedule: Q04DX003 (ip), vehicle: Klucel (hydroxypropylcellulose) (HPC) 97 % of control | dose: 400.0 mg/kg/injection, schedule: Q01DX009 (ip), vehicle: Klucel (hydroxypropylcellulose) (HPC) 88 % of control | dose: 400.0 mg/kg/injection, schedule: Q04DX003 (ip), vehicle: Klucel (hydroxypropylcellulose) (HPC) 92 % of control

Cc1csc[n+]1C
inactive: [1] 98 % of control | [2] 102 % of control

CN(C)C=C1C(=O)NC(=O)NC1=O
inactive: [8] 96 % of control | dose: 25.0 mg/kg/injection, schedule: Q01DX009 (ip), vehicle: saline 95 % of control | [9] 103 % of control | dose: 50.0 mg/kg/injection, schedule: Q01DX009 (ip), vehicle: saline 106 % of control | [3] 102 % of control | dose: 100.0 mg/kg/injection, schedule: Q01DX009 (ip), vehicle: saline 106 % of control

CN(C)c1nnc([N+](=O)[O-])s1
inactive: dose: 62.0 mg/kg/injection, schedule: Q04DX003 (ip), vehicle: Klucel (hydroxypropylcellulose) (HPC) 93 % of control | dose: 123.0 mg/kg/injection, schedule: Q04DX003 (ip), vehicle: Klucel (hydroxypropylcellulose) (HPC) 87 % of control

Cc1ccnc(NS(=O)(=O)c2ccc(N=Nc3ccc(N)nc3N)cc2)n1
inactive: [3] 100 % of control | [4] 102 % of control | [5] 100 % of control

Nc1nc(N)c2cc(N3CCCC3c3ccc(Cl)c(Cl)c3)ccc2n1 (configuration not stated)
inactive: dose: 1.56 mg/kg/injection, schedule: Q01DX009 (ip), vehicle: water 103 % of control | dose: 3.12 mg/kg/injection, schedule: Q01DX009 (ip), vehicle: water 110 % of control | dose: 6.25 mg/kg/injection, schedule: Q01DX009 (ip), vehicle: water 98 % of control

CCCCCCCC(=O)NC1CCC(C(C)(C)C)CC1 (configuration not stated)
inactive: dose: 100.0 mg/kg/injection, schedule: Q01DX009 (ip), vehicle: other 100 % of control | dose: 200.0 mg/kg/injection, schedule: Q01DX009 (ip), vehicle: other 97 % of control | dose: 400.0 mg/kg/injection, schedule: Q01DX009 (ip), vehicle: other 106 % of control

[N-]=[N+]=Nc1nc2c(N)ncnc2n1C1OC(CO)C(O)C1O (configuration not stated)
inactive: [8] 102 % of control | [9] 105 % of control | [3] 103 % of control

N#CC(Cl)(Cl)CCl
inactive: dose: 12.0 mg/kg/injection, schedule: Q04DX003 (ip), vehicle: saline 105 % of control | dose: 25.0 mg/kg/injection, schedule: Q04DX003 (ip), vehicle: saline 96 % of control | dose: 50.0 mg/kg/injection, schedule: Q04DX003 (ip), vehicle: saline 96 % of control | dose: 100.0 mg/kg/injection, schedule: Q04DX003 (ip), vehicle: saline 103 % of control and 105 % of control
